# Data: PubChem BioAssay AID1288 (Columbia University Molecular Screening Center, 2008)
# Active and inactive are the calls of the source. The rule behind the calls is not given here.
# Assay: E-selectin induction blockers, endothelial cells – imaging, retest plus dose response, cell count, confirmation (AID 1288);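 note: 0% = stimulated vehicle wells and 100% = unstimulated vehicle wells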
# Settings: human endothelial cells, TNFa-induced E-selectin, imaging; at 2 µM; active compounds read high
row,Structure (SMILES),inhibition
1,O=C(CSc1nc2ccccc2[nH]1)N1CCN(S(=O)(=O)c2ccc(Cl)cc2)CC1,3.87% (inactive)
2,Cc1cccc(NC(=O)CCSc2nc(C)cc(C)n2)c1,4.57% (inactive)
3,CN(Cc1ccccc1)C(=S)NC(=O)C1CCCCC1,8.28% (inactive)
4,CCCCCn1c(CN2CCN(Cc3ccccc3)CC2)nc2c1c(=O)n(C)c(=O)n2C,2.55% (inactive)
5,CN(CC(=O)Nc1ccc(Cl)cc1)c1ccc(S(=O)(=O)N2CCCCC2)cc1[N+](=O)[O-],7.17% (inactive)
6,C/C(=N\NC(=O)c1cccc(C)c1)c1ccc(N2CCOCC2)cc1,4.53% (inactive)
7,CCOC(=O)N1CCN(C(=O)c2ccc(Oc3ccc([N+](=O)[O-])cc3)cc2)CC1,18.9% (inactive)
8,CCN1C(=O)c2cccc3c(NC(=O)c4cccc(N5C(=O)CCC5=O)c4)ccc1c23,0.82% (inactive)
9,COc1ccc(S(=O)(=O)N(CC(N)=O)C2CCCCC2)cc1Cl,5.95% (inactive)
10,Cc1ccc(NC(=O)COc2ccc(-n3ccnc3)cc2)cc1Cl,9.69% (inactive)
11,CCCNc1ncnc2sc(C)c(C)c12,12.7% (inactive)
12,CNC(=S)N=Nc1c(O)[nH]c2ccc(C(C)C)cc12,9.53% (inactive)
13,CC(C)Cn1cnc2c1c(=O)n(CC(=O)Nc1ccc3c(c1)OCO3)c(=O)n2Cc1ccccc1,14.6% (inactive)
14,O=S1(=O)CCN(CCc2c[nH]c3ccccc23)CC1,-4.95% (inactive)
15,CC(C)C(c1nnnn1Cc1ccccc1)N1CCC(C(N)=O)CC1 (stereo not drawn),9.62% (inactive)
16,c1nc(NCCN2CCOCC2)c2sc3nc(N4CCOCC4)c4c(c3c2n1)CCC4,34.1% (inactive)
17,Cc1ccc(-n2c(=O)c3c4c(sc3n(Cc3cc(=O)n5ccccc5n3)c2=O)CCC4)cc1C,3.95% (inactive)
18,NC(=O)C1CCCN(C(=S)Nc2cccc3ccccc23)C1 (stereo not drawn),9.37% (inactive)
19,COC(=O)Cn1cnc2c1c(=O)n(C)c(=O)n2C,6.02% (inactive)
20,Cc1ccc2oc(Nc3nc(-c4ccccc4)cc(=O)[nH]3)nc2c1,10.7% (inactive)
21,COCCN(C(=O)CCC(=O)Nc1ccccn1)C(C(=O)NC1CCCC1)c1ccc(OC)cc1 (stereo not drawn),2.57% (inactive)
22,Cc1c(Cl)cnc(NC(=O)COC(=O)c2nn(C)c(=O)c3ccccc23)c1Cl,12.5% (inactive)
23,Cc1sc(NC(=O)c2ccco2)c(CN2CCN(c3ccccn3)CC2)c1C,24.4% (inactive)
24,CS(=O)(=O)N(CC(=O)NCCC1=CCCCC1)C1CCCCC1,-0.77% (inactive)
25,O=C(Nc1cccs1)Nc1c(F)c(F)c(F)c(F)c1F,1.63% (inactive)

row,Structure (SMILES),inhibition
1,COc1ccc(S(=O)(=O)Cc2ccc(C(=O)N3CCOCC3)o2)cc1,26.4% (inactive)
2,COCCOC(=O)c1c(NC(=O)CN2CCOCC2)sc(C(N)=O)c1C,16.3% (inactive)
3,Cc1cc(C(=O)N2CCc3ccccc32)c2ccccc2n1,2.81% (inactive)
4,CCC(=O)Nc1cccc(NC(=O)CSc2nnc(-c3ccc(NS(C)(=O)=O)cc3)n2C)c1,-2.9% (inactive)
5,COc1ccc(C)cc1S(=O)(=O)N(C)CC(=O)N1CCCCC1,-0.62% (inactive)
6,O=C(/C=C/c1ccc2c(c1)OCO2)Nc1nc2ccccc2s1,16.2% (inactive)
7,O=C(C1CCN(c2nc3ccc(Br)cc3s2)CC1)N1CCC2(CC1)OCCO2,5.07% (inactive)
8,COc1ccc(-n2nc([N+](=O)[O-])c(=NCCc3ccc(Cl)cc3)n2O)cc1,6.09% (inactive)
9,COc1ccc(C(=O)NCCNC(C)=O)cc1S(=O)(=O)NCc1ccc(Cl)cc1,14.8% (inactive)
10,CC(C)(C)c1ccc(OCCCNCc2ccccc2)cc1,-6.22% (inactive)
11,COCCNC(=O)c1ccc(N(C)S(=O)(=O)c2ccc(OC)c(OC)c2)cc1,0.94% (inactive)
12,CN(C(=S)Nc1ccc(Oc2ccccc2)cc1)c1ccc(O)cc1,12.6% (inactive)
13,O=c1cc(O)n(-c2ccc(F)cc2)c(=S)[nH]1,-0.2% (inactive)
14,CCN1C(=O)/C(=C\c2cn(-c3ccccc3)nc2-c2cccnc2)SC1=S,28% (inactive)
15,O=[N+]([O-])c1ccc(N2CCNCC2)cc1NCC1CCCO1 (stereo not drawn),-1.91% (inactive)
16,NC(=O)c1ccc(-c2ccc(Br)cc2)o1,36.5% (inactive)
17,COc1ccc(Nc2nc(C)cc(C)c2C#N)cc1OC,6.96% (inactive)
18,COc1ccc(-c2nc3cnccn3c2NC(C)(C)CC(C)(C)C)cc1O,6.02% (inactive)
19,Cc1cc(S(=O)(=O)N2CCN(c3ccccc3O)CC2)c(C)s1,5.21% (inactive)
20,Cc1c(Cl)cccc1N1C(=O)CC(N(O)c2ccccc2)C1=O (stereo not drawn),12.9% (inactive)
21,O=C(Cc1ccc(-c2ccccc2)cc1)NCCN1CCOCC1,2.16% (inactive)
22,Cc1ccc(O)c(NC(=S)NC(=O)c2ccc(-c3ccc(Cl)cc3)o2)c1,20.3% (inactive)
23,Cc1ccc(Cn2ncc3c(N4CCN(C5CCCC5)CC4)ncnc32)cc1,3.96% (inactive)
24,Cc1ccc(NC(=O)N2CCC(C(=O)NCCC3=CCCCC3)CC2)cc1,11.6% (inactive)
25,O=C(Oc1ccccc1N1C(=O)C2CC=CCC2C1=O)c1ccc(Br)cc1 (stereo not drawn),5.75% (inactive)

row,Structure (SMILES),inhibition
1,O=C(c1ccccc1)N1CCN(c2ccccc2F)CC1,9.93% (inactive)
2,Cn1c(SCc2ccc(C#N)cc2)nnc1-c1cccc(Cl)c1,7.7% (inactive)
3,COc1ccccc1N(Cc1ccccc1)S(=O)(=O)c1cccc(C(=O)Nc2ccc(C(C)=O)cc2)c1,14.8% (inactive)
4,Oc1ccc(-c2csc(-c3ccccc3)n2)cc1O,35.9% (inactive)
5,CN1C(=O)S/C(=C\c2ccccc2OCc2ccc(C(=O)O)cc2)C1=O,15.9% (inactive)
6,Cc1cc(C)cc(C(=O)Oc2coc(CSc3nnc(NC(=O)C4CC4)s3)cc2=O)c1,6.25% (inactive)
7,CCn1c(=O)cc(SCC(=O)N2CCN(C3CCCCC3)CC2)c2ccccc21,16.9% (inactive)
8,CCC(=O)NC(c1ccc([N+](=O)[O-])cc1)c1c(O)ccc2ccccc12 (stereo not drawn),0.15% (inactive)
9,O=C(Nc1ccc(F)cc1)N1CCOCC1,29.5% (inactive)
10,O=C(N/N=C/c1ccc([N+](=O)[O-])s1)c1cccnc1,44.3% (inactive)
11,O=S1(=O)CCC(NC(=S)N2CCCCCC2)C1 (stereo not drawn),18.2% (inactive)
12,COc1ccccc1-n1c(=O)[nH]c2c(C(N)=O)nc(C3CCCCC3)nc21,13.4% (inactive)
13,CC(C)[C@H](NC(=O)CCn1nnc2ccccc2c1=O)C(=O)O,4.34% (inactive)
14,C/C=C/Cn1c(N2CCCCCC2)nc2c1c(=O)[nH]c(=O)n2C,17.1% (inactive)
15,COc1ccc2[nH]c(C)c(CCN3C(=O)C4C5C=CC(C5)C4C3=O)c2c1 (stereo not drawn),9.54% (inactive)
16,COc1ccc(C(=O)OCCNC(=O)c2c(Cl)nc3ccccn23)cc1,3.04% (inactive)
17,COc1cc(CNCc2ccco2)ccc1OCc1ccccc1,11.6% (inactive)
18,COC(=O)CN1C(=S)N(c2ccc(Cl)cc2)C(=O)C1CC(=O)Nc1ccc(Cl)cc1 (stereo not drawn),-1.33% (inactive)
19,Cc1cc(NC(=O)CCC(=O)N(CC(=O)NCC2CCCO2)c2ccccc2C)no1 (stereo not drawn),14.8% (inactive)
20,COc1cc(S(=O)(=O)N(Cc2ccccn2)Cc2ccco2)ccc1-n1cnnn1,2% (inactive)
21,O=C(/C=C/Nc1cccc(C(F)(F)F)c1)c1ccc(Oc2ncccn2)cc1,18% (inactive)
22,O=C(NNc1nc2ccccc2s1)Nc1ccccc1,5.88% (inactive)
23,O=C(Nc1ccc2nsnc2c1)c1ccc2c(c1)OCO2,7.37% (inactive)
24,Cc1nc2ccccc2c(=O)n1/N=C/c1ccc(O)cc1,4.58% (inactive)
25,CCC(C)(C)n1nnnc1C(c1ccc(OC)c(OC)c1)N1CCN(c2ccccc2)CC1 (stereo not drawn),2.72% (inactive)

row,Structure (SMILES),inhibition
1,COc1ccc(C(=O)/C=C/c2ccc(F)cc2)c(OC(=O)c2ccc([N+](=O)[O-])cc2)c1,5.11% (inactive)
2,CN1CCCN(S(=O)(=O)c2cccc(Cl)c2Cl)CC1,-0.57% (inactive)
3,C/C(=N\NC(=O)CC1N=C(Cc2ccccc2)NNC1=O)c1ccc(C)cc1 (stereo not drawn),3.58% (inactive)
4,COc1ccc(NC(=O)c2c(C)oc3c2CCCC3)cc1,3.37% (inactive)
5,COc1cccc(/C=N/NC(=O)c2c(-c3ccccc3)noc2C)c1,4.18% (inactive)
6,O=C1C=C(c2ccccc2)C(O)(c2ccccc2)C1 (stereo not drawn),-0.71% (inactive)
7,CN1c2ccccc2C2(C)CCCC3=Cc4cccc([N+](=O)[O-])c4OC312 (stereo not drawn),2.99% (inactive)
8,COCCNC(=O)c1ccccc1NC(=O)c1cccc([N+](=O)[O-])c1C,0.34% (inactive)
9,O=C(N/N=C1/CCS(=O)(=O)c2ccc(F)cc21)c1ccccn1,8.24% (inactive)
10,COc1ccc(S(=O)(=O)Nc2ccc(C)cc2)cc1N(C)S(=O)(=O)c1ccc(Cl)cc1,3.82% (inactive)
11,COc1ccccc1C(=O)NCCN1CCN(C(=O)c2ccccc2OC)CC1,9.74% (inactive)
12,CC(=O)Nc1ccc(OCCF)cc1,0.31% (inactive)
13,O=C(CSc1ccccn1)N/N=C/c1ccccc1[N+](=O)[O-],5.02% (inactive)
14,COc1ccc(CCNC(=O)C(=O)NCc2ccc(C)cc2)cc1OC,8.92% (inactive)
15,CC(=O)OC(C(=O)NCc1ccco1)c1cccnc1 (stereo not drawn),6.49% (inactive)
16,Cc1cc([N+](=O)[O-])nn1CCCC(=O)Nc1sc2c(c1C(N)=O)CCC(C)C2 (stereo not drawn),1.33% (inactive)
17,O=C(O)/C=C/c1ccc2ccccc2n1,-2.31% (inactive)
18,CCCCN(C(=O)c1cc(OC)c(OC)c(OC)c1)C1=CC2CCC(C1)N2C (stereo not drawn),8.59% (inactive)
19,C/C(=N\Nc1cccc2cccnc12)c1ccccc1O,-0.47% (inactive)
20,COc1cccc(C(C)NC(=O)c2c(F)cccc2Cl)c1 (stereo not drawn),21.5% (inactive)
21,O=C(/C=C/c1ccc(F)cc1)NC(=S)Nc1ccccc1C(=O)NC1CCCCC1,2.9% (inactive)
22,CCOC(=O)c1sc2nc(CSc3nc4ccccc4n3CC)[nH]c(=O)c2c1C,-2.72% (inactive)
23,C=CCN1C(c2ccccc2)=CS/C1=C(\C#N)c1nnc2n1CCCCC2,34% (inactive)
